From US11180452B2, “Methods and compositions for selectively inhibiting pathogenic microbes” (priority 2019, dated 2021)
Values after ≈ are worked out from the molar mass of the structure shown. Values joined by “and” are separate entries in the source; they are usually repeats but may differ in a detail not shown here. Identical values can stand only once. Like-named read-outs stand apart in the source and are kept apart here.

How the values were obtained:
[1] = system: Francisella tularensis subsp. Holarctica Strain LVSR NR-597; test: microbe, parasite or virus in culture; type: cell-based
Candida glabrata = Candida glabrata MIC / MFC; type: cell-based; conditions: Nakaseomyces glabratus, Candida glabrata #584 (Table 2); for MIC: read-out: MIC
Bacillus subtilis = Bacillus subtilis MIC / MBC; type: cell-based; conditions: for MIC: Bacillus subtilis (Ehrenberg 1835) Cohn 1872 NRRL: B-571, read-out: MIC; for MBC: Bacillus subtilis NRRL: B-571, minimum bactericidal concentration
[2] = system: Burkholderia thailandensis Brett et al ATCC: 700388; test: microbe, parasite or virus in culture; type: cell-based
Bacillus thuringiensis = type: cell-based; conditions: Bacillus thuringiensis Berliner ATCC: 10792; for MIC: Bacillus thuringiensis, read-out: MIC
[3] = Toxicity in mice, body weight over 7 days; type: in vivo, Balb/c mice; conditions: for Animal body weight (kg) Day 0 / Animal body weight (kg) Day 1 / Animal body weight (kg) Day 2 / Animal body weight (kg) Day 3 / Animal body weight (kg) Day 4 / Animal body weight (kg) Day 5 / Animal body weight (kg) Day 6 / Animal body weight (kg) Day 7: mice, IP; for Animal body weight (kg) Day 0: Day 0, individual animals; for Animal body weight (kg) Day 1: Day 1, individual animals; for Animal body weight (kg) Day 2: Day 2, individual animals; for Animal body weight (kg) Day 3: Day 3, individual animals; for Animal body weight (kg) Day 4: Day 4, individual animals; for Animal body weight (kg) Day 5: Day 5, individual animals; for Animal body weight (kg) Day 6: Day 6, individual animals; for Animal body weight (kg) Day 7: Day 7, individual animals
Excerpt: The vehicle is 40% PEG300 solution in 0.9% NaCl. […] Thus, the compounds are useful for in vivo antimicrobial administration.

[4] = system: Francisella tularensis strains; test: microbe, parasite or virus in culture; type: cell-based
[5] = read-out: F. tularensis BSL-3 MIC, Strain 100
[6] = read-out: F. tularensis BSL-3 MIC, strain HN-63
[7] = read-out: F. tularensis BSL-3 MIC, strain LVS
[8] = read-out: F. tularensis BSL-3 MIC, strain MA00-2987
[9] = read-out: F. tularensis BSL-3 MIC, strain MO #1
[10] = read-out: F. tularensis BSL-3 MIC, strain MO #2
[11] = read-out: F. tularensis BSL-3 MIC, strain MO #3
[12] = read-out: F. tularensis BSL-3 MIC, strain OR-96
[13] = read-out: F. tularensis BSL-3 MIC, strain SCHU S4
[14] = read-out: F. tularensis BSL-3 MIC, strain WY-96
[15] = read-out: MAX, highest MIC over the Francisella tularensis strains
[16] = read-out: MIN, lowest MIC over the Francisella tularensis strains

Structure (SMILES): COc1ccc2[nH]cc(Sc3ccccc3Br)c2c1 [Compound 174AS, 3-((2-bromophenyl)thio)-5-methoxy-1H-indole]
- MIC [1]: 1 µg/mL (≈ 2.99 µM)
- MIC (Candida glabrata): > 50 µg/mL
- MIC (Bacillus subtilis; Bacillus subtilis): 2 µg/mL (≈ 5.98 µM)

Structure (SMILES): Cc1[nH]c2ccccc2c1Sc1ccc(Br)cc1 [Compound 172C, 3-((4-bromophenyl)thio)-2-methyl-1H-indole]
- MIC [2]: > 50 µg/mL

Structure (SMILES): Cc1[nH]c2ccc(O)cc2c1Sc1ccccc1N [Compound 174AK, 3-((2-aminophenyl)thio)-2-methyl-1H-indol-5-ol]
- MIC [2]: > 50 µg/mL
- MIC (Bacillus thuringiensis): > 50 µg/mL
- MIC (Candida glabrata): > 50 µg/mL
- MBC (Bacillus subtilis): > 50 µg/mL
- MIC (Bacillus subtilis; Bacillus subtilis): 50 µg/mL (≈ 185 µM)

Structure (SMILES): Fc1ccccc1Sc1c[nH]c2ccc(Br)cc12 [Compound 174AU, 5-bromo-3-((2-fluorophenyl)thio)-1H-indole]
- MIC [1]: 0.25 µg/mL (≈ 0.776 µM)
- toxicity in mice by body weight ([3]; 6-week-old Balb/c mice, body weight over 7 days, vehicle 40% PEG300 in 0.9% NaCl): did not have significant toxicity
- Animal body weight (kg) Day 0 ([3]; 0.1 mg/kg, 0.1 mg/kg): 0.026 kg and 0.023 kg and 0.024 kg
- Animal body weight (kg) Day 1 ([3]; 0.1 mg/kg, 0.1 mg/kg): 0.024 kg and 0.022 kg and 0.023 kg
- Animal body weight (kg) Day 2 ([3]; 0.1 mg/kg, 0.1 mg/kg): 0.025 kg and 0.022 kg and 0.023 kg
- Animal body weight (kg) Day 3 ([3]; 0.1 mg/kg, 0.1 mg/kg): 0.025 kg and 0.022 kg and 0.023 kg
- Animal body weight (kg) Day 4 ([3]; 0.1 mg/kg, 0.1 mg/kg): 0.025 kg and 0.022 kg and 0.023 kg
- Animal body weight (kg) Day 5 ([3]; 0.1 mg/kg, 0.1 mg/kg): 0.025 kg and 0.023 kg and 0.024 kg
- Animal body weight (kg) Day 6 ([3]; 0.1 mg/kg, 0.1 mg/kg): 0.025 kg and 0.022 kg and 0.023 kg
- Animal body weight (kg) Day 7 ([3]; 0.1 mg/kg, 0.1 mg/kg): 0.024 kg and 0.022 kg and 0.023 kg
- Animal body weight (kg) Day 0 ([3]; 1 mg/kg, 1 mg/kg): 0.026 kg and 0.022 kg and 0.025 kg
- Animal body weight (kg) Day 1 ([3]; 1 mg/kg, 1 mg/kg): 0.025 kg (2×) and 0.022 kg
- Animal body weight (kg) Day 2 ([3]; 1 mg/kg, 1 mg/kg): 0.026 kg and 0.022 kg and 0.025 kg
- Animal body weight (kg) Day 3 ([3]; 1 mg/kg, 1 mg/kg): 0.026 kg and 0.022 kg and 0.025 kg
- Animal body weight (kg) Day 4 ([3]; 1 mg/kg, 1 mg/kg): 0.026 kg and 0.023 kg and 0.025 kg
- Animal body weight (kg) Day 5 ([3]; 1 mg/kg, 1 mg/kg): 0.026 kg and 0.023 kg and 0.025 kg
- Animal body weight (kg) Day 6 ([3]; 1 mg/kg, 1 mg/kg): 0.025 kg (2×) and 0.023 kg
- Animal body weight (kg) Day 7 ([3]; 1 mg/kg, 1 mg/kg): 0.026 kg and 0.024 kg and 0.025 kg
- Animal body weight (kg) Day 0 ([3]; 10 mg/kg, 10 mg/kg): 0.024 kg (2×) and 0.025 kg
- Animal body weight (kg) Day 1 ([3]; 10 mg/kg, 10 mg/kg): 0.023 kg (2×) and 0.024 kg
- Animal body weight (kg) Day 2 ([3]; 10 mg/kg, 10 mg/kg): 0.023 kg (2×) and 0.025 kg
- Animal body weight (kg) Day 3 ([3]; 10 mg/kg, 10 mg/kg): 0.024 kg and 0.023 kg and 0.025 kg
- Animal body weight (kg) Day 4 ([3]; 10 mg/kg, 10 mg/kg): 0.023 kg (2×) and 0.025 kg
- Animal body weight (kg) Day 5 ([3]; 10 mg/kg, 10 mg/kg): 0.023 kg (2×) and 0.026 kg
- Animal body weight (kg) Day 6 ([3]; 10 mg/kg, 10 mg/kg): 0.022 kg and 0.023 kg and 0.026 kg
- Animal body weight (kg) Day 7 ([3]; 10 mg/kg, 10 mg/kg): 0.022 kg and 0.023 kg and 0.026 kg
- MBC (Bacillus thuringiensis): 2 µg/mL (≈ 6.21 µM)
- MIC (Bacillus thuringiensis): 1 µg/mL (≈ 3.1 µM)
- MIC50 [4]: 2 µg/mL (≈ 6.21 µM)
- MIC [4, 5]: 8 µg/mL (≈ 24.8 µM)
- MIC [4, 6]: 2 µg/mL (≈ 6.21 µM)
- MIC [4, 7]: 2 µg/mL (≈ 6.21 µM)
- MIC [4, 8]: 2 µg/mL (≈ 6.21 µM)
- MIC [4, 9]: 1.83 µg/mL (≈ 5.68 µM)
- MIC [4, 10]: 1.67 µg/mL (≈ 5.18 µM)
- MIC [4, 11]: 2 µg/mL (≈ 6.21 µM)
- MIC [4, 12]: 4 µg/mL (≈ 12.4 µM)
- MIC [4, 13]: 4 µg/mL (≈ 12.4 µM)
- MIC [4, 14]: 1.5 µg/mL (≈ 4.66 µM)
- MIC [4, 15]: 8 µg/mL (≈ 24.8 µM)
- MIC [4, 16]: 1.5 µg/mL (≈ 4.66 µM)
- MFC (Candida glabrata; minimum fungicidal concentration, read-out: MFC): 50 µg/mL (≈ 155 µM)
- MIC (Candida glabrata): 3.13 µg/mL (≈ 9.71 µM)
- MBC (Bacillus subtilis): 2 µg/mL (≈ 6.21 µM)
- MIC (Bacillus subtilis; Bacillus subtilis): 1 µg/mL (≈ 3.1 µM)

Structure (SMILES): Brc1ccc(Sc2cnc3ccccn23)cc1 [Compound 174AN, 3-((4-bromophenyl)thio)imidazo[1,2-a]pyridine]
- MIC (Candida glabrata): 50 µg/mL (≈ 164 µM)
- MIC (Bacillus subtilis; Bacillus subtilis): 16 µg/mL (≈ 52.4 µM)

Structure (SMILES): Brc1ccc2[nH]cc(Sc3cc(Br)c(Br)c(Br)c3)c2c1 [Compound 174AH, 5-bromo-3-((3,4,5-tribromophenyl)thio)-1H-indole]
- MIC [2]: > 50 µg/mL
- MBC (Bacillus thuringiensis): > 50 µg/mL
- MIC (Bacillus thuringiensis): 8 µg/mL (≈ 14.8 µM)
- MIC (Candida glabrata): > 50 µg/mL
- MBC (Bacillus subtilis): > 50 µg/mL
- MIC (Bacillus subtilis; Bacillus subtilis): 8 µg/mL (≈ 14.8 µM)

Structure (SMILES): Cc1[nH]c2ccc(O)cc2c1Sc1ccccc1O [Compound 174AO, 3-((2-hydroxyphenyl)thio)-2-methyl-1H-indol-5-ol]
- MIC [1]: 50 µg/mL (≈ 184 µM)
- MIC (Candida glabrata): > 50 µg/mL
- MIC (Bacillus subtilis; Bacillus subtilis): 50 µg/mL (≈ 184 µM)

Structure (SMILES): Cc1ccccc1Sc1c[nH]c2ccc(Br)cc12 [Compound 174AY, 5-bromo-3-(o-tolylthio)-1H-indole]
- MIC [1]: 1 µg/mL (≈ 3.14 µM)
- MBC (Bacillus thuringiensis): 4 µg/mL (≈ 12.6 µM)
- MIC (Bacillus thuringiensis): 2 µg/mL (≈ 6.28 µM)
- MIC50 [4]: 3.83 µg/mL (≈ 12 µM)
- MIC [4, 5]: 4 µg/mL (≈ 12.6 µM)
- MIC [4, 6]: 2 µg/mL (≈ 6.28 µM)
- MIC [4, 7]: 4 µg/mL (≈ 12.6 µM)
- MIC [4, 8]: 3.67 µg/mL (≈ 11.5 µM)
- MIC [4, 9]: 2 µg/mL (≈ 6.28 µM)
- MIC [4, 10]: 3.33 µg/mL (≈ 10.5 µM)
- MIC [4, 11]: 3.67 µg/mL (≈ 11.5 µM)
- MIC [4, 12]: 4 µg/mL (≈ 12.6 µM)
- MIC [4, 13]: 4 µg/mL (≈ 12.6 µM)
- MIC [4, 14]: 4 µg/mL (≈ 12.6 µM)
- MIC [4, 15]: 4 µg/mL (≈ 12.6 µM)
- MIC [4, 16]: 2 µg/mL (≈ 6.28 µM)
- MBC (Bacillus subtilis): 2 µg/mL (≈ 6.28 µM)
- MIC (Bacillus subtilis; Bacillus subtilis): 1 µg/mL (≈ 3.14 µM)

Structure (SMILES): OCc1ccccc1Sc1c[nH]c2ccc(Br)cc12 [Compound 174AT, (2-((5-bromo-1H-indol-3-yl)thio)phenyl)methanol]
- MIC [1]: 8 µg/mL (≈ 23.9 µM)
- MBC (Bacillus thuringiensis): 16 µg/mL (≈ 47.9 µM)
- MIC (Bacillus thuringiensis): 8 µg/mL (≈ 23.9 µM)
- MIC (Candida glabrata): 50 µg/mL (≈ 150 µM)
- MBC (Bacillus subtilis): 16 µg/mL (≈ 47.9 µM)
- MIC (Bacillus subtilis; Bacillus subtilis): 8 µg/mL (≈ 23.9 µM)

Structure (SMILES): Clc1c(Cl)c(Cl)c(Sc2c[nH]c3ccc(Br)cc23)c(Cl)c1Cl [Compound 174AD, 5-bromo-3-((perchlorophenyl)thio)-1H-indole]
- MIC [2]: > 50 µg/mL
- MBC (Bacillus thuringiensis): > 50 µg/mL
- MIC (Bacillus thuringiensis): 32 µg/mL (≈ 67.2 µM)
- MIC (Bacillus subtilis): 16 µg/mL (≈ 33.6 µM)
- MBC (Bacillus subtilis): 50 µg/mL (≈ 105 µM)
